From patent US20130109017A1, “MULTIPLE MYELOMA PROGNOSIS AND TREATMENT” (University of Utah Research Foundation, priority 2010, published 2013)

Legend:
[1] = tested on: 5TGM1 myeloma cells; assay: 5TGM1 myeloma cell proliferation; assay type: cell-based, mouse; settings: for 5TGM1 cell growth compared to controls: once a day, FIG. 2
Procedure: Blood. 93: 1697-1706 (1999). 5TGM1 cells were grown in Hyclone classical liquid media RPMI 1640 (Thermo Scientific Hyclone, Logan, Utah) supplemented with heat-inactivated fetal bovine serum (Thermo Scientific Hyclone, Logan, Utah) and 1% penicillin-streptomycin solution (GIBCO, Grand Island, N.Y.) at 37° C. in 5% CO2. Additionally, two bortezomib-resistant MM cell lines, RPMI 8226 and ARP1, were generated via a stepwise increase in bortezomib (velcade) concentration.
Initially, 5TGM1 myeloma cells were seeded in 24-well plates (10^5 cells/mL) using RPMI-1640, supplemented with 2% FBS, in the presence or absence of bortezomib (velcade), PTH, and/or {[TYR^34]bPTH-(7-34)}.

[2] = tested on: 5TGM1/C57BL/KaLwRij mouse myeloma model; assay: Overall survival of 5TGM1/C57BL/KaLwRij myeloma mice; assay type: in vivo
Procedure: Blood. 114 Abstract 2865 (2009). […] Control animals received injections of PBS.
In this regard, the anti-PTH compound, {[TYR^34]bPTH-(7-34)}, was also tested in the presence or absence of bortezomib and PTH to determine whether myeloma growth and/or bone formation were affected. Similar experiments were performed using carfilzomib as shown below.
C57BL/KaLwRij mice (n=5) were subcutaneously injected carfilzomib (1.5 mg/kg) twice a week. The anti-PTH compound (500 μg/kg) was also administered to the mice 3 days prior and 1 day prior to carfilzomib treatment, where noted. Tumor burden was monitored by measuring IgG2b serum concentration twice a week.

[3] = tested on: bortezomib-resistant RPMI 8226 MM cell line; assay: IC50 of bortezomib in bortezomib-resistant RPMI 8226 cells; assay type: cell-based; settings: RPMI8226 bortezomib-resistant cells
Procedure: 5TGM1 myeloma cells (Noboru et al., A multiresponse parathyroid hormone assay: an inhibitor has agonist properties in vivo. American Physiological Society. E589-95 (1983)) were initially derived from the myeloma cell line 5T33, which were obtained from C57BL/KaLwRij mice. See Dallas et al., Ibandronate Reduces Osteolytic Lesions but not Tumor Burden in a Murine Model of Myeloma Bone Disease. Blood. 93: 1697-1706 (1999). 5TGM1 cells were grown in Hyclone classical liquid media RPMI 1640 (Thermo Scientific Hyclone, Logan, Utah) supplemented with heat-inactivated fetal bovine serum (Thermo Scientific Hyclone, Logan, Utah) and 1% penicillin-streptomycin solution (GIBCO, Grand Island, N.Y.) at 37° C. in 5% CO2. Additionally, two bortezomib-resistant MM cell lines, RPMI 8226 and ARP1, were generated via a stepwise increase in bortezomib (velcade) concentration.

[4] = tested on: 5TGM1/C57BL/KaLwRij mouse myeloma model; assay: Serum IgG2b level in 5TGM1/C57BL/KaLwRij myeloma mice; settings: bortezomib 1 mg/kg, PTH 80 μg/kg; p=0.017, p=0.029, p=0.017 respectively; FIG. 7
Procedure: A preclinical myeloma model was employed to examine the effects of PTH and bortezomib (velcade) on proteasome activity with respect to bone remodeling and MM pathogenesis. As such, myelomatous C57BL/KaLwRij mice were injected with 5TGM1 multiple myeloma cells as described. […] Briefly, 5TGM1 inoculation cultures were harvested, centrifuged, washed twice in 50 mL phosphate-buffered saline (PBS), and resuspended at 5×10^6 cells per mL of PBS. Experimental mice were injected with 100 μl of inoculation culture via tail vein injection using a 27-gauge needle. Control animals received injections of PBS.
Each experimental group included 5 mice, and one week after 5TGM1 cell injection, bortezomib, PTH, and/or {[TYR^34]bPTH-(7-34)} were administered in various combinations. The following groups, each containing five mice, were analyzed: untreated controls; bortezomib-treated mice; PTH treated mice; PTH and bortezomib treated mice; and 5{[TYR^34]bPTH-(7-34)} and bortezomib treated mice.
In accord with the experimental procedure outline above, bortezomib (velcade), at a concentration of 1 mg/kg, was administered to the mice via intraperitoneal injection alone, or in combination with PTH or the anti-PTH compound, twice a week (FIG. 6). PTH was added in a similar fashion, once-daily, alone, or in combination with bortezomib, at a concentration of 80 μg/kg. […]

With “{[TYR^34]bPTH-(7-34)} (FMHNLGKHLSSMERVEWLRKKLQDVHNY; Parathyroid hormone; UniProt P01268 38-65, looked up, variant F34Y) [anti-PTH, analog of PTH, antagonist of PTH]” the “effect on 5TGM1 cell survival” value ([1]; anti-PTH alone at 100 nM, 500 nM and 1 μM, p=0.1, FIG. 3) was “did not have an effect”.

`CC(C)C[C@H](NC(=O)[C@H](CCc1ccccc1)NC(=O)CN1CCOCC1)C(=O)N[C@@H](Cc1ccccc1)C(=O)N[C@@H](CC(C)C)C(=O)[C@@]1(C)CO1` [carfilzomib] was tested, and the “survival compared to controls” value ([2]; carfilzomib 1.5 mg/kg subcutaneous twice a week, p=0.012, FIG. 8) was “increased survival”.

For `CC(C)C[C@H](NC(=O)[C@H](Cc1ccccc1)NC(=O)c1cnccn1)B(O)O` [bortezomib], the “increased survival versus control mice” value ([2]; bortezomib 1 mg/kg intraperitoneal twice a week) was 40%, the maximum survival ([2]; bortezomib 1 mg/kg intraperitoneal twice a week, control mice maximum five weeks) was “up to seven” and the “survival compared to controls” value ([2]; bortezomib 1 mg/kg intraperitoneal twice a week, p=0.044, FIG. 6) was “prolonged survival”. The “survival compared to mice treated with bortezomib and the anti-PTH compound” value ([2]; bortezomib 1 mg/kg, PTH 80 μg/kg, p=0.044 (bortezomib), p=0.047 (bortezomib and PTH)) was “significantly longer period of time”, the IC50 [3] was 250 nM and the “5TGM1 cell proliferation compared to controls” value ([1]; bortezomib alone at 5 nM or 10 nM, every other day, p=0.01 at 5 nM, p=0.001 at 10 nM, FIG. 1) was “concentration dependent reduction in 5TGM1 cell proliferation”. The “serum IgG level compared to controls” value [4] was “significant inhibition”.

B1: parathyroid hormone (peptide, UniProt P01270 32-115, looked up)
Parathyroid hormone: SVSEIQLMHNLGKHLNSMERVEWLRKKLQDVHNFVALGAPLAPRDAGSQRPRKKEDNVLVESHEKSLGEADKADVNVLTKAKSQ
modifications: Parathyroid hormone
notes: 84 amino acid polypeptide secreted by the parathyroid glands
B1 was tested, and the “5TGM1 cell growth compared to controls” value ([1]; PTH alone 10 nM, p=0.1) was “not a significant difference”, the “5TGM1 cell growth compared to controls” value ([1]; PTH alone 50 nM, p=0.001) was “statistically significant decrease in cell growth” and the “5TGM1 cell growth compared to controls” value ([1]; PTH alone 100 nM, p=0.001) was “statistically significant decrease in cell growth”. For the same molecule, the “serum IgG level compared to controls” value [4] was “significant inhibition”.
